Where a SMILES comes first, the peptide text is derived from it. [ ]: non-standard residue; d: D form. Orn = NCCC[CH](N)C(=O)O
Row | SMILES | logP
1 | CCCCC(NC(Cc1ccccc1)C(=O)N1CCC(OCOC)CC1)C(=O)NC(CC1CCCCC1)C(O)CC(C(=O)NCCCNCCO)C(C)C (configuration not stated) | 3.5
2 | Clc1ccc(Sc2nc(C(Cl)(Cl)Cl)nc(C(Cl)(Cl)Cl)n2)cc1 | 6.67
3 | CCN(C)N=Nc1ccccc1C(N)=O | 2.59
4 | Clc1ccc(-c2c(Cl)ccc(Cl)c2Cl)c(Cl)c1Cl | 7.04
5 | O=c1[nH]c(Nc2ccccc2)nc2c1ncn2C1CC(O)C(CO)O1 (configuration not stated) | 0.4
6 | CCC1(CCC(C)C)C(=O)NC(=O)N(C)C1=O (configuration not stated) | 2.45
7 | CC1CC2C3CCC4=CC(=O)C=CC4(C)C3(F)C(O)CC2(C)C1(O)C(=O)NCc1ccc([N+](=O)[O-])cc1 (configuration not stated) | 3.44
8 | C[C@H]1OC(O[C@H]2[C@@H](O)CC(O[C@H]3[C@@H](O)CC(O[C@H]4CC[C@@]5(C)[C@H](CC[C@@H]6[C@@H]5CC[C@]5(C)[C@@H](C7=CC(=O)OC7)[C@@H](OC=O)C[C@]65O)C4)O[C@@H]3C)O[C@@H]2C)C[C@H](O)[C@@H]1O (some centres not stated) | 2.04
9 | C#CCOc1c(Cl)cc(NC=NOCCCC)cc1Cl | 4.4
10 | CC(=O)NC(CC(C)C)C(=O)NC(CCCCN)C(=O)NC(Cc1ccccc1)C(N)=O (stereo not drawn) (Ac-Leu-Lys-Phe-NH2; configuration not given here) | 1.14
11 | CC(C)(C)C(=O)C(C#N)=NNc1cc(C(F)(F)F)ccc1Cl | 5.31
12 | O=c1nc(N=CN2CCCC2)ccn1C1OC(CO)C(O)C1O (configuration not stated) | -1.15
13 | CCOC(=O)CCC(C)n1nnc2ccccc21 (configuration not stated) | 2.64
14 | CC(=O)NC(CC(C)C)C(=O)NC(CCCN)C(=O)NC(Cc1ccccc1)C(N)=O (configuration not stated) (Ac-Leu-[Orn]-Phe-NH2; configuration not given here) | 0.53
15 | CC(=O)NC(CCCN)C(=O)NC(CC(C)C)C(N)=O (configuration not stated) (Ac-[Orn]-Leu-NH2; configuration not given here) | -0.71
16 | CSC(=O)c1c(C(F)F)nc(C(F)(F)F)c(C(=O)SC)c1CC(C)C | 4.75
17 | COC(=O)c1c(C)[nH]c(-c2ncccc2Cl)c1C(=O)OC | 1.51
18 | CC(O)CNC(=O)C(F)(F)Cn1cnc([N+](=O)[O-])n1 (configuration not stated) | -0.47
19 | COc1cc(O)cc(OC)c1O | 0.17
20 | Cc1ccc(Cl)cc1O | 2.63
21 | CNC(=C[N+](=O)[O-])NCCSCc1nccs1 | -0.15
22 | Clc1cc(Cl)c(-c2cc(Cl)c(Cl)c(Cl)c2)c(Cl)c1 | 7.25
23 | CC12CCC(=O)C=C1CCC1C2CCC2(C)C1CCC21CCC(=O)O1 (configuration not stated) | 2.98
24 | O=P([O-])(Oc1ccc(Cl)cc1)Oc1ccc(Cl)cc1 | 2.64
25 | N#CC(C#N)=NNc1ccc(/N=N/c2ccccc2)cc1 | 4.25

Row | SMILES | logP
26 | COCCCNC(=S)C(F)(F)Cn1cnc([N+](=O)[O-])n1 | 1.1
27 | COCCCNC(=O)C(F)(F)Cn1cnc([N+](=O)[O-])n1 | 0.01
28 | CCCCCCCOc1ccccc1NC(=O)OCCN1CCOCC1 | 4.51
29 | O=[N+]([O-])C=C1NCCN1CCc1ccc(Cl)nc1 | -0.23
30 | CN(C)N=Nc1ccc(CC(=O)O)cc1 | 1.38
31 | CCCCN(C)N=Nc1ccccc1C(N)=O | 3.52
32 | CCOC(=O)Cn1ccnc1C=Cc1ccc([N+](=O)[O-])o1 | 1.27
33 | CSCCCNC(=O)C(F)(F)Cn1cnc([N+](=O)[O-])n1 | 0.76
34 | CC1(c2ccc(F)cc2)OC2CC3C4CCC5=CC(=O)CCC5C4CCC3(C)C2(C(=O)CO)O1 (configuration not stated) | 4.92
35 | O=c1[nH]c(Nc2ccccc2)nc2c1ncn2CC(O)CSCCO (configuration not stated) | 0.83
36 | Cc1ccc(C2(Cn3cncn3)OCCO2)cc1 | 1.55
37 | CN(C)N=Nc1ccc(S(=O)(=O)CCO)cc1 | 1.15
38 | CCCCCCC(C)(C)c1ccc(C2CC(O)CC3CCC(O)CC32)c(O)c1 (configuration not stated) | 6.13
39 | NS(=O)(=O)c1cc(S(=O)(=O)c2ccc(CN3CCOCC3)cc2)cs1 | 0.98
40 | CCCCOC(=O)c1cnc2n(c1=O)C(C)CCC2 (configuration not stated) | 1.77
41 | COc1ccc(OCc2ccccc2CCCN2CCC(O)CC2)cc1 | 3.1
42 | Clc1ccc(-c2ccccc2)c(Cl)c1Cl | 5.86
43 | O=C1C(=O)N(c2ccccc2)C(=O)c2ccccc21 | 1.14
44 | CN1C=CCC(C(=O)OC2CCC(NC(=O)N(CCCl)N=O)CC2)=C1 (configuration not stated) | 2.53
45 | O=C(CCn1ccnc1[N+](=O)[O-])NCCO | -1.08
46 | CCC(C)OC(=O)C(C(=O)OC(C)CC)=C1SC=CS1 (configuration not stated) | 4.89
47 | C#CCNC(=O)C1(O)C(C)CC2C3CCC4=CC(=O)C=CC4(C)C3(F)C(O)CC21C (configuration not stated) | 2
48 | O=[N+]([O-])C=C1NCCN1Cc1ccncc1 | -1.05
49 | O=c1ccn(C2C=C(CO)C(O)C2O)c(=O)[nH]1 (configuration not stated) | -2.19
50 | O=C(Cc1ccccc1)Nc1cccc(C(F)(F)F)c1 | 3.84

Row | SMILES | logP
51 | CC(=O)c1c(C)n(C)c2ccccc12 | 2.03
52 | O=c1cc[nH]cc1 | -1.3
53 | Cc1n[nH]c(C(=O)N2CCCC2)c1[N+](=O)[O-] | 0.25
54 | CNC(=NC#N)Nc1cccc(-c2csc(N=C(N)N)n2)c1 | 1.6
55 | CCCCCCC(=O)OC(C(=O)NC1C(=O)N2C(C(=O)O)=C(C)CSC12)c1ccccc1 (configuration not stated) | 3.23
56 | Clc1cc2c(c(Cl)c1Cl)Oc1ccc(Cl)c(Cl)c1O2 | 6.74
57 | CCC(=O)C(CS(=O)(=O)c1ccc(C)cc1)c1ccc(Cl)cc1 (configuration not stated) | 3.43
58 | Clc1cc(Cl)cc(-c2cccc(Cl)c2Cl)c1 | 6.17
59 | OCc1ccc(O)c2ncccc12 | 1
60 | Cc1[nH]c2cccc3c2c1CC1NCC(C(=O)NC2(C(C)C)OC4(O)C5CCCN5C(=O)C(C(C)C)N4C2=O)C=C31 (configuration not stated) | 3.15
61 | CC(C)(N=C(O)C(Br)C(C)(C)C)c1ccccc1 (configuration not stated) | 3.47
62 | Oc1ccc(F)c2cccnc12 | 2.3
63 | CCOC(=S)NCCn1c([N+](=O)[O-])cnc1C | 1.5
64 | O=[N+]([O-])c1nccn1COC(CO)CO | -1.17
65 | C#CCOc1c(Cl)cc(NC=NO)cc1Cl | 2.8
66 | Cc1n[nH]c(C(=O)NC2CC2)c1[N+](=O)[O-] | 0.25
67 | CC(C)CNC(=O)C1(O)C(C)CC2C3CCC4=CC(=O)C=CC4(C)C3(F)C(O)CC21C (configuration not stated) | 3.01
68 | CN(C)N=Nc1ccc2oc3ccccc3c2c1 | 4.55
69 | CC12C=CC(=O)C=C1CCC1C2C(O)CC2(C)C1CCC2(O)C(=O)COC1OC(CO)C(OC2OC(CO)C(O)C(O)C2O)C(O)C1O (configuration not stated) | -0.56
70 | Cc1cc(OCCN(C)C)c(C(C)C)cc1OS(=O)(=O)C12CCC(CC1=O)C2(C)C (configuration not stated) | 4.37
71 | Clc1cc(-c2c(Cl)c(Cl)c(Cl)c(Cl)c2Cl)c(Cl)c(Cl)c1Cl | 9.14
72 | CC(=NOCC(=O)O)c1cc(Oc2ccc(C(F)(F)F)cc2Cl)ccc1[N+](=O)[O-] | 4.3
73 | Nc1nc(Sc2ccc(Cl)cc2)nc(C(Cl)(Cl)Cl)n1 | 4.51
74 | CCC1COC(Cn2cncn2)(c2ccc(NC(=O)C(F)(F)F)cc2)O1 (configuration not stated) | 1.08
75 | Cc1cccc(C)c1NN=C(C#N)C#N | 2.8

Row | SMILES | logP
76 | CC1CC2C3CCC4=CC(=O)C=CC4(C)C3(F)C(O)CC2(C)C1(O)C(=O)NC1CCCCC1 (configuration not stated) | 3.54
77 | CN1C=CCC1c1cccnc1 (configuration not stated) | 1.47
78 | c1ccc(OCc2cccc(CN3CCCC3)c2)cc1 | 3.75
79 | O=[N+]([O-])c1nccn1COC(CO)C(O)CO (configuration not stated) | -1.47
80 | C#CCOc1c(Cl)cc(NC=NOCC)cc1Cl | 3.6
81 | O=C(NN=Cc1ccco1)Nc1ccccc1 | 2.52
82 | Cc1ncc(CO)c(COCCC(C)C)c1O | 0.83
83 | CCCCCc1ccc(OCC(OC(=O)n2ccnc2)C(C)(C)C)cc1 (configuration not stated) | 5.26
84 | CCN(CC)Cc1cccc(C(=O)Nc2c(C)cccc2C)c1 | 3.09
85 | CN1CCN(Cc2ccc(Cl)nc2)C1=N[N+](=O)[O-] | 0.26
86 | CC1(C)SC2C(NC(=O)c3c(-c4c(F)cccc4Cl)noc3CO)C(=O)N2C1C(=O)O (configuration not stated) | 2.23
87 | CN(CC1(C)CCCO1)S(=O)(=O)c1ccc(Cl)c(S(N)(=O)=O)c1 (configuration not stated) | 1.54
88 | Cc1ccccc1C(=O)NN(C(=O)c1ccccc1Cl)C(C)(C)C | 2.91
89 | CC1CC2C3CCC4=CC(=O)C=CC4(C)C3(F)C(O)CC2(C)C1(O)C(=O)NCC#N (configuration not stated) | 1.57
90 | CC(C)Oc1cccc(NC(=O)c2ccccc2C(F)(F)F)c1 | 3.7
91 | CNC(=NC#N)NCCSCc1nccs1 | 0.89
92 | Cc1n[nH]c(C(=O)NC2CCCC2)c1[N+](=O)[O-] | 1.24
93 | Nc1nc(=O)n(C2CCC(CO)O2)cc1I (configuration not stated) | -0.31
94 | CCC(=O)C1(c2cccc(O)c2)CCN(C)CC1 | 1.02
95 | CCCCC(NC(Cc1ccccc1)C(=O)N1CCC(OCOC)CC1)C(=O)NC(CC1CCCCC1)C(O)CC(C(=O)NCCC[N+]1([O-])CCOCC1)C(C)C (configuration not stated) | 3.6
96 | O=C1C(Br)=C(N2CC2)C(=O)C(Br)=C1N1CC1 | 2.03
97 | O=C1CC(Sc2nc3ccccc3s2)N1 (configuration not stated) | 2.3
98 | C#CCOc1c(Cl)cc(NC=NOC(C)CC)cc1Cl (configuration not stated) | 4.2
99 | CCC(=O)C1(c2cccc(OC(=O)OC)c2)CCN(C)CC1 | 0.75
100 | CS(=O)(=O)CCOCn1ccnc1C=NO | -0.84

Row | SMILES | logP
101 | O=C1OC(O)C(C(Cl)Cl)=C1Cl (configuration not stated) | 1.13
102 | O=C(O)C(OCc1ccc(Cl)cc1)c1ccccc1 (configuration not stated) | 2.6
103 | Cc1cc(NC(=O)C2=C(O)c3ccccc3S(=O)(=O)N2C)no1 | 2.83
104 | Clc1cc(Cl)c(-c2ccc(Cl)c(Cl)c2Cl)c(Cl)c1 | 7.25
105 | CC(CO)OC(C)CO (configuration not stated) | -0.67
106 | CC(=O)NC(Cc1ccccc1)C(=O)NC(CCCCN)C(N)=O (configuration not stated) | 0.14
107 | Clc1cc(Cl)cc(-c2cc(Cl)c(Cl)c(Cl)c2Cl)c1 | 7.43
108 | CCCC(=O)OCCOCn1cnc2c(=O)[nH]c(N)nc21 | -0.08
109 | Nc1ccn(C2OC3COC2C3O)c(=O)n1 (configuration not stated) | -1.64
110 | OCCOc1ccc(Cl)cc1 | 1.99
111 | CCCCOc1ccc(NC(=O)OCCN2CCOCC2)cc1 | 3.35
112 | CC1=C(/C=C/C(C)=C/C=C/C(C)=C/CO)C(C)(C)CCC1 | 5.68
113 | Cc1c(O)c(=O)ccn1-c1ccc([N+](=O)[O-])cc1 | 0.76
114 | N#CC(C#N)=NNc1ccccc1Br | 3.11
115 | Clc1cc(Cl)c2c(c1)Oc1c(cc(Cl)c(Cl)c1Cl)O2 | 6.53
116 | O=c1nc(N=CN2CCOCC2)ccn1C1OC(CO)C(O)C1O (configuration not stated) | -1.66
117 | CCCCCOc1cccc(NC(=O)OCCN2CCOCC2)c1 | 4.13
118 | Cc1nc([N+](=O)[O-])c(Br)n1C | 0.44
119 | O=C(Cn1ccnc1[N+](=O)[O-])NCCCCO | -0.74
120 | NC1=NCC2c3ccccc3Cc3ccccc3N12 (configuration not stated) | 3.51
121 | CCCOc1ccc(NC(=O)OCCN2CCOCC2)cc1 | 2.78
122 | CCC1COC(Cn2cncn2)(c2ccc(NC(=O)c3ccc([N+](=O)[O-])cc3)cc2)O1 (configuration not stated) | 2.17

From the OPERA property sets (Mansouri et al. 2018)
